From EP4603105A1, “PHARMACEUTICAL COMPOSITION CONTAINING CYCLIC COMPOUND HAVING SELECTIVE KRAS INHIBITORY EFFECT AGAINST HRAS AND NRAS” (CHUGAI SEIYAKU KABUSHIKI KAISHA, priority 2022, dated 2024)

Experiments:
[1] = target: HRAS wild-type protein (Homo sapiens, UniProt P01112); assay: Binding to HRAS by surface plasmon resonance (SPR), KD and KD ratio to KRAS; details: ratio of KD for HRAS wild-type protein to KD for KRAS
Procedure, shortened: (§1)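 Compound binding is evaluated by SPR single-cycle kinetics, with concentrations added intermittently from low to high for 75 s each. Target surfaces carry GDP-loaded biotinylated Avi-RAS at about 100–300 RU, regenerated after each cycle; temperature 30°C. A 1:1 binding model gives KD.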

[2] = target: GDP-bound NRAS wild-type protein (Homo sapiens, UniProt P01111); assay: Binding to NRAS by surface plasmon resonance (SPR), KD and KD ratio to KRAS; details: ratio of KD for GDP-bound NRAS wild-type protein to KD for KRAS
Procedure, shortened: as §1

[3] = test system: human lung cancer strain NCI-H441; assay type: cell-based
Procedure, shortened: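 Proliferation was scored by […] measured after the reagent was added to cultures kept at 37°C in 5% carbon dioxide.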

Chain of HRAS wild-type protein (P01112 whole entry): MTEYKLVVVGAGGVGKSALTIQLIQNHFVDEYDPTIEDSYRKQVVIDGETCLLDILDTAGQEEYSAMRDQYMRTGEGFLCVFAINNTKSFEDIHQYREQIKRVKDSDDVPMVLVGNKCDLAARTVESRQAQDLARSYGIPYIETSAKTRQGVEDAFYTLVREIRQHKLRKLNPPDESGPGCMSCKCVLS
Chain of GDP-bound NRAS wild-type protein (P01111 whole entry): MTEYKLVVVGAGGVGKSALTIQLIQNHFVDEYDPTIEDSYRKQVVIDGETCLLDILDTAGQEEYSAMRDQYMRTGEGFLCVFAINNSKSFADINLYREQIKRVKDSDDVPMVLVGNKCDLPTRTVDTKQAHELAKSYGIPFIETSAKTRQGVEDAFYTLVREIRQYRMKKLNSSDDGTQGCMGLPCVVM

Structure (SMILES) | HRAS /KRAS [1] | NRAS /KRAS [2] | IC50 [3]
CCO[C@@H]1C[C@H]2C(=O)NC3(CC(C)(C)C3)C(=O)N(C)[C@@H](C3CCCC3)C(=O)N(C)[C@H](C(=O)N(C)CC)CC(=O)N(C)[C@@H](CC(C)C)C(=O)N[C@@H]([C@@H](C)CC)C(=O)N(C)CC(=O)N(C)[C@H]3C/C=C\CCN(C3=O)[C@@H](Cc3ccc(C(F)F)cc3)C(=O)N(C)CC(=O)N[C@@H](CCc3ccc(C(F)(F)F)c(Cl)c3)C(=O)N2C1 [PP2829] | A (a compound having 10 or more and less than 20 is denoted as A) | A (a compound having 10 or more and less than 20 is denoted as A) | 7.9 nM
CCCOC[C@H]1C(=O)N[C@@H]([C@@H](C)CC)C(=O)N(C)CC(=O)N(C)[C@H]2C/C=C\CCN(C2=O)[C@@H](Cc2ccc(C(F)(F)F)cc2)C(=O)N(C)CC(=O)N[C@@H](CCc2ccc(C(F)(F)F)c(Cl)c2)C(=O)N2C[C@H](OCC)C[C@H]2C(=O)NC2(CCC2)C(=O)N(C)[C@@H](C2CCCC2)C(=O)N(C)[C@H](C(=O)N(C)CCC)CC(=O)N1C [PP2831] | A (a compound having 10 or more and less than 20 is denoted as A) | A (a compound having 10 or more and less than 20 is denoted as A) | 14.1 nM
CCO[C@@H]1C[C@H]2C(=O)NC3(CC(C)(C)C3)C(=O)N(C)[C@@H](C3CCCC3)C(=O)N(C)[C@H](C(=O)N(C)C)CC(=O)N(C)[C@@H](CC(F)(F)F)C(=O)N[C@@H]([C@@H](C)CC)C(=O)N(C)CC(=O)N(C)[C@H]3C/C=C\CCN(C3=O)[C@@H](Cc3ccc(C(F)(F)F)cc3)C(=O)N(C)CC(=O)N[C@@H](CCc3ccc(Cl)c(Cl)c3)C(=O)N2C1 [PP2832] | A (a compound having 10 or more and less than 20 is denoted as A) | A (a compound having 10 or more and less than 20 is denoted as A) | 4.8 nM
CCO[C@@H]1C[C@H]2C(=O)NC3(CC(C)(C)C3)C(=O)N(C)[C@@H](C3CCCC3)C(=O)N(C)[C@H](C(=O)N(C)C)CC(=O)N(C)[C@@H](CC(F)(F)F)C(=O)N[C@@H]([C@@H](C)CC)C(=O)N(C)CC(=O)N(C)[C@H]3C/C=C\CCN(C3=O)[C@@H](Cc3ccc(C(F)(F)F)cc3)C(=O)N(C)CC(=O)N[C@@H](CCc3ccc(C(F)(F)F)c(Cl)c3)C(=O)N2C1 [PP2833] | A (a compound having 10 or more and less than 20 is denoted as A) | A (a compound having 10 or more and less than 20 is denoted as A) | 3.8 nM
CCO[C@@H]1C[C@H]2C(=O)NC3(CC(C)(C)C3)C(=O)N(C)[C@@H](C3CCCC3)C(=O)N(C)[C@H](C(=O)N(C)CC)CC(=O)N(C)[C@@H](COC)C(=O)N[C@@H]([C@@H](C)CC)C(=O)N(C)CC(=O)N(C)[C@H]3C/C=C\CCN(C3=O)[C@@H](Cc3ccc(C(F)(F)F)cc3)C(=O)N(C)CC(=O)N[C@@H](CCc3ccc(Cl)c(Cl)c3)C(=O)N2C1 [PP2835] | A (a compound having 10 or more and less than 20 is denoted as A) | A (a compound having 10 or more and less than 20 is denoted as A) | 13 nM
CCO[C@@H]1C[C@H]2C(=O)NC3(CC(C)(C)C3)C(=O)N(C)[C@@H](C3CCCC3)C(=O)N(C)[C@H](C(=O)N(C)CC)CC(=O)N(C)[C@@H](COC)C(=O)N[C@@H]([C@@H](C)CC)C(=O)N(C)CC(=O)N(C)[C@H]3C/C=C\CCN(C3=O)[C@@H](Cc3ccc(C(F)(F)F)cc3)C(=O)N(C)CC(=O)N[C@@H](CCc3ccc(C(F)(F)F)c(Cl)c3)C(=O)N2C1 [PP2836] | A (a compound having 10 or more and less than 20 is denoted as A) | A (a compound having 10 or more and less than 20 is denoted as A) | 5.1 nM
CCO[C@@H]1C[C@H]2C(=O)NC3(CCCC3)C(=O)N(C)[C@@H](C3CCCC3)C(=O)N(C)[C@H](C(=O)N(C)C)CC(=O)N(C)[C@@H](CC(C)C)C(=O)N[C@@H]([C@@H](C)CC)C(=O)N(C)CC(=O)N(C)[C@H]3C/C=C\CCN(C3=O)[C@@H](Cc3ccc(C(F)(F)F)cc3)C(=O)N(C)CC(=O)N[C@@H](CCc3ccc(Cl)c(Cl)c3)C(=O)N2C1 [PP2837] | A (a compound having 10 or more and less than 20 is denoted as A) | AA (a compound having 20 or more is denoted as AA) | 12.8 nM
CCO[C@@H]1C[C@H]2C(=O)NC3(CCCC3)C(=O)N(C)[C@@H](C3CCCC3)C(=O)N(C)[C@H](C(=O)N(C)C)CC(=O)N(C)[C@@H](CC(C)C)C(=O)N[C@@H]([C@@H](C)CC)C(=O)N(C)CC(=O)N(C)[C@H]3C/C=C\CCN(C3=O)[C@@H](Cc3ccc(C(F)(F)F)cc3)C(=O)N(C)CC(=O)N[C@@H](CCc3ccc(C(F)(F)F)c(Cl)c3)C(=O)N2C1 [PP2838] | A (a compound having 10 or more and less than 20 is denoted as A) | AA (a compound having 20 or more is denoted as AA) | 7.9 nM
CCCC[C@H]1C(=O)N[C@@H]([C@@H](C)CC)C(=O)N(C)CC(=O)N(C)[C@H]2C/C=C\CCN(C2=O)[C@@H](Cc2ccc(C(F)(F)F)cc2)C(=O)N(C)CC(=O)N[C@@H](CCc2ccc(C(F)(F)F)c(OC)c2)C(=O)N2C[C@H](OCC)C[C@H]2C(=O)NC2(CCC2)C(=O)N(C)[C@@H](C2CCCC2)C(=O)N(C)[C@H](C(=O)N(C)CC)CC(=O)N1C [PP2840] | A (a compound having 10 or more and less than 20 is denoted as A) | A (a compound having 10 or more and less than 20 is denoted as A) | 8.3 nM
CCO[C@@H]1C[C@H]2C(=O)NC3(CCC3)C(=O)N(C)[C@@H](C3CCCC3)C(=O)N(C)[C@H](C(=O)N(C)C)CC(=O)N(C)[C@@H](CC3CCCC3)C(=O)N[C@@H]([C@@H](C)CC)C(=O)N(C)CC(=O)N(C)[C@H]3C/C=C\CCN(C3=O)[C@@H](Cc3ccc(C(F)(F)F)cc3)C(=O)N(C)CC(=O)N[C@@H](CCc3ccc(C(F)(F)F)c(Cl)c3)C(=O)N2C1 [PP2842] | B (a compound having 3 or more and less than 10 is denoted as B) | A (a compound having 10 or more and less than 20 is denoted as A) | 7.2 nM
C#CC[C@H]1C(=O)N[C@@H]([C@@H](C)CC)C(=O)N(C)CC(=O)N(C)[C@H]2C/C=C\CCN(C2=O)[C@@H](Cc2ccc(C(F)(F)F)cc2)C(=O)N(C)CC(=O)N[C@@H](CCc2ccc(Cl)c(Cl)c2)C(=O)N2C[C@H](OCC)C[C@H]2C(=O)NC2(CC(C)(C)C2)C(=O)N(C)[C@@H](C2CCCC2)C(=O)N(C)[C@H](C(=O)N(C)CC)CC(=O)N1C [PP2843] | A (a compound having 10 or more and less than 20 is denoted as A) | A (a compound having 10 or more and less than 20 is denoted as A) | 17.7 nM
C#CC[C@H]1C(=O)N[C@@H]([C@@H](C)CC)C(=O)N(C)CC(=O)N(C)[C@H]2C/C=C\CCN(C2=O)[C@@H](Cc2ccc(C(F)(F)F)cc2)C(=O)N(C)CC(=O)N[C@@H](CCc2ccc(C(F)(F)F)c(Cl)c2)C(=O)N2C[C@H](OCC)C[C@H]2C(=O)NC2(CC(C)(C)C2)C(=O)N(C)[C@@H](C2CCCC2)C(=O)N(C)[C@H](C(=O)N(C)CC)CC(=O)N1C [PP2844] | A (a compound having 10 or more and less than 20 is denoted as A) | A (a compound having 10 or more and less than 20 is denoted as A) | 7.6 nM
CCO[C@@H]1C[C@H]2C(=O)NC3(CCC3)C(=O)N(C)[C@@H](C3CCCC3)C(=O)N(C)[C@H](C(=O)N(C)CC)CC(=O)N(C)[C@@H](CC(C)C)C(=O)N[C@@H]([C@@H](C)CC)C(=O)N(C)CC(=O)N(C)[C@H]3C/C=C\CCN(C3=O)[C@@H](Cc3ccc(C(F)(F)F)cc3)C(=O)N(C)CC(=O)N[C@@H](CCc3ccc(C(F)(F)F)c(OC)c3)C(=O)N2C1 [PP2846] | A (a compound having 10 or more and less than 20 is denoted as A) | AA (a compound having 20 or more is denoted as AA) | 5.1 nM
CCC[C@H]1C(=O)N[C@@H]([C@@H](C)CC)C(=O)N(C)CC(=O)N(C)[C@H]2C/C=C\CCN(C2=O)[C@@H](Cc2ccc(C(F)(F)F)cc2)C(=O)N(C)CC(=O)N[C@@H](CCc2ccc(CC)c(Cl)c2)C(=O)N2C[C@H](OCC)C[C@H]2C(=O)NC2(CC(C)(C)C2)C(=O)N(C)[C@@H](C2CCCC2)C(=O)N(C)[C@H](C(=O)N(C)C)CC(=O)N1C [PP2848] | A (a compound having 10 or more and less than 20 is denoted as A) | A (a compound having 10 or more and less than 20 is denoted as A) | 28.9 nM
CCC[C@H]1C(=O)N[C@@H]([C@@H](C)CC)C(=O)N(C)CC(=O)N(C)[C@H]2C/C=C\CCN(C2=O)[C@@H](Cc2ccc(C(F)(F)F)cc2)C(=O)N(C)CC(=O)N[C@@H](CCc2cc(F)c3c(c2)CCC3)C(=O)N2C[C@H](OCC)C[C@H]2C(=O)NC2(CC(C)(C)C2)C(=O)N(C)[C@@H](C2CCCC2)C(=O)N(C)[C@H](C(=O)N(C)C)CC(=O)N1C [PP2849] | A (a compound having 10 or more and less than 20 is denoted as A) | A (a compound having 10 or more and less than 20 is denoted as A) | 28.2 nM
